Results from PMC8658794, “Design, Synthesis, and Biological Evaluation of HDAC Degraders with CRBN E3 Ligase Ligands” (Molecules, 2021).
Like-named read-outs stand apart in the source and are kept apart here.

Legend:
MM.1S cell line = assay: In vitro anti-proliferative activity, MTS assay; assay type: cell-based; conditions: for IC50: Homo sapiens, MM1.S
Method: The cells were seeded in 96 well plates at a proper density in growth media. After 24 h, a range of concentrations of the test compounds was added and the plates were incubated at 37 °C for 72 h. The cell proliferation was determined by the MTS assay. After 3 h, the absorbance was collected using SpectraMAX 340. The IC50 values were calculated by fitting a concentration–response curve using a SoftMax pro-based four-parameter method.

HDAC3 [1] = target: T1, HDAC3 (Homo sapiens, UniProt O15379); assay: In vitro HDAC inhibition assay (fluorogenic substrate), HDAC3; assay type: biochemical; design: All three full-length rhHDACs were expressed in insect High5 cells using a baculoviral expression system; His6; GST; made in house; host or cells: insect High5 cells (baculovirus); conditions: recombinant human HDAC3; mean ± SD of three independent determinations
Method: (§1) All three full-length rhHDACs were expressed in insect High5 cells using a baculoviral expression system, and all the His6-tagged and GST-fusion proteins were purified using Ni-NTA (QIAGEN). […] In brief, the HDAC assay mixture contained an HDAC substrate (5–50 μM, 5 μl), rhHDAC isoforms (20–200 nM) and an inhibitor (1 μl). The positive controls contained all the above components except the inhibitor. The negative controls contained neither an enzyme nor an inhibitor. The HDAC6 assay components were incubated at room temperature for 3 h, and HDAC 1 and 3 were incubated for 24 h. […] The plates were incubated for 30 min at room temperature to allow the fluorescence signal to develop.
Target sequence in this assay (O15379 whole entry, the tested form may be a part, canonical isoform): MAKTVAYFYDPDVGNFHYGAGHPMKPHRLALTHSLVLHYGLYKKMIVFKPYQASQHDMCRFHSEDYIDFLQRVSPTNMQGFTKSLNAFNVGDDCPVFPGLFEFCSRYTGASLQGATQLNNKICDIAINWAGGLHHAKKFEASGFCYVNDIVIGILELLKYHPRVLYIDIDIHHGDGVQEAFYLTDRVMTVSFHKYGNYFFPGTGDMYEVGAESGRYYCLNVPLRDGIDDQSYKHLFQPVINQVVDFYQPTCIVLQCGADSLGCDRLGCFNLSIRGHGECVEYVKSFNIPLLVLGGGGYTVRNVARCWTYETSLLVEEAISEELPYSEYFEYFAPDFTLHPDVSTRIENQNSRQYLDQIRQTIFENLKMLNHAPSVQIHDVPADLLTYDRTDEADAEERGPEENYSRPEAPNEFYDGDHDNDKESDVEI
Target sequence in this assay (Q9Y618 395-489 partner limits assumed): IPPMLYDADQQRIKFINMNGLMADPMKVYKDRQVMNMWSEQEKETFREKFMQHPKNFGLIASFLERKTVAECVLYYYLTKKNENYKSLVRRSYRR

HDAC1 [2] = target: T2, HDAC1 (Homo sapiens, UniProt Q13547); assay: In vitro HDAC inhibition assay (fluorogenic substrate), HDAC1; assay type: biochemical; design: All three full-length rhHDACs were expressed in insect High5 cells using a baculoviral expression system; His6; GST; made in house; host or cells: insect High5 cells (baculovirus); conditions: recombinant human HDAC1; mean ± SD of three independent determinations
Method: as §1

HDAC6 [3] = target: T3, HDAC6 (Homo sapiens, UniProt Q9UBN7); assay: In vitro HDAC inhibition assay (fluorogenic substrate), HDAC6; assay type: biochemical; design: All three full-length rhHDACs were expressed in insect High5 cells using a baculoviral expression system; His6; GST; made in house; host or cells: insect High5 cells (baculovirus); conditions: recombinant human HDAC6; mean ± SD of three independent determinations
T3 sequence (Q9UBN7 1-1215): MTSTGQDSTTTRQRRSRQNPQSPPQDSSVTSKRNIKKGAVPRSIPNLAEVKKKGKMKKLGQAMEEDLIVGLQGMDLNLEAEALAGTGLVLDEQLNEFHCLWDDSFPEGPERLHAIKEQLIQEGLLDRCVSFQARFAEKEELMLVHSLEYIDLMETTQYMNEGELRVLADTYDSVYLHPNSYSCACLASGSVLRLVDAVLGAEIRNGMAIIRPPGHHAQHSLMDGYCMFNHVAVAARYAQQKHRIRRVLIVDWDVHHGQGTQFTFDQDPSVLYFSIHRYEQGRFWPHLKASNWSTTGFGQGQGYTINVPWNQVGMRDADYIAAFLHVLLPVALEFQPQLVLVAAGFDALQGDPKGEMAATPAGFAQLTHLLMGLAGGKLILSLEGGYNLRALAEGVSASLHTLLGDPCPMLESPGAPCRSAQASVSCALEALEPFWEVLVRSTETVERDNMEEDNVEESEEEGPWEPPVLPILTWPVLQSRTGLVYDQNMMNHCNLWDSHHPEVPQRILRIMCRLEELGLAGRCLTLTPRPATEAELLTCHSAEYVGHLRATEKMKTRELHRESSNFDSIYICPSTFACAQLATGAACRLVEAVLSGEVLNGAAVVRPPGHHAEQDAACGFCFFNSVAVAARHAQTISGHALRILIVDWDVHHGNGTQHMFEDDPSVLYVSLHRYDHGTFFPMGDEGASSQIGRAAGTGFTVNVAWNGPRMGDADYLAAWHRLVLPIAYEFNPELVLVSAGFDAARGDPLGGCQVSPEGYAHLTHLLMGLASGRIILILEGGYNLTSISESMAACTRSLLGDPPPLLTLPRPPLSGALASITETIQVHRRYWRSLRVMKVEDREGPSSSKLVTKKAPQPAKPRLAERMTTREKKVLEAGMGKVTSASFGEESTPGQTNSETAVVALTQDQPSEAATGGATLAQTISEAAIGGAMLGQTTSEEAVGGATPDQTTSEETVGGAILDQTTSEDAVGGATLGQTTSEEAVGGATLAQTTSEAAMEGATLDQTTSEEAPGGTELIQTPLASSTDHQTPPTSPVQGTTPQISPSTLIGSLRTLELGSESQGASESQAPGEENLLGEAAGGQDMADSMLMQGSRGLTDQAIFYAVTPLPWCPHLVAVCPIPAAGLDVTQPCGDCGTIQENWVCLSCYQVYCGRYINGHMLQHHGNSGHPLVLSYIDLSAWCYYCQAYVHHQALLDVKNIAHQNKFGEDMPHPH
Method: as §1

HDAC6 [4] = target: T3, HDAC6; assay: Western blot of HDAC6 protein level (degradation) in MM.1S cells; assay type: cell-based; design: endogenous in cells; host or cells: MM.1S; conditions: 3 h; for degradation of HDAC6 (immunoblot): different concentrations
Method: (§2) The 2 × 10^6 MM.1S cells (multiple myeloma) were cultured in a cell culture plate and incubated for 1 h. Next, the MM.1S cells were treated with compounds at different concentrations for 3 h. Subsequently, the cells were collected, washed, lysed in a Ripa buffer containing a sample reducing agent, and analyzed using SDS/PAGE. Finally, the gel was blotted and the total HDAC levels were detected through standard Western blot.

tubulin acetylation = assay: Tubulin acetylation in MM.1S cells; assay type: cell-based
HDAC1 [5] = target: T2, HDAC1; assay: Western blot of HDAC1 protein level (degradation) in MM.1S cells; assay type: cell-based; design: endogenous in cells; host or cells: MM.1S; conditions: 3 h, different concentrations
Method: as §2

HDAC3 [6] = target: T1, HDAC3; assay: Western blot of HDAC3 protein level (degradation) in MM.1S cells; assay type: cell-based; design: endogenous in cells; host or cells: MM.1S; conditions: 3 h, different concentrations
Method: as §2
Target sequence in this assay (O15379 whole entry, the tested form may be a part, canonical isoform): as the sequence (O15379 whole entry, the tested form may be a part, canonical isoform) above

[7] = MM.1S, 72 h, MTS, mean ± SD of three independent determinations, read-out: IC50 (μM ± SD) anti-proliferative activity against MM.1S cell line

T2 sequence (Q13547 whole entry): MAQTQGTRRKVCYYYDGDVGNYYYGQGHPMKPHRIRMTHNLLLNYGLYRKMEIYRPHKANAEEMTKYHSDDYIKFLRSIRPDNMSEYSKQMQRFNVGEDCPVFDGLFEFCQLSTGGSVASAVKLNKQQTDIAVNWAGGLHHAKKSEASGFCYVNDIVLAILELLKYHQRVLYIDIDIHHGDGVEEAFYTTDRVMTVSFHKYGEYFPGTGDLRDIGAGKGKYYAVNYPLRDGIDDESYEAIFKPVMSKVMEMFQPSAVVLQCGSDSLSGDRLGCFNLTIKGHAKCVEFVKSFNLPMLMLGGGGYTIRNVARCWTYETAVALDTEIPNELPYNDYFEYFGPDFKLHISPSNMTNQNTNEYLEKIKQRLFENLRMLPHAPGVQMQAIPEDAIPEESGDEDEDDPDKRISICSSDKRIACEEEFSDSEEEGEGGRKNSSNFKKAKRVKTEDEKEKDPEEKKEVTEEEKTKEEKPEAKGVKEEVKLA

O=C(CCCCCNC(=O)Nc1cccc2c1C(=O)N(C1CCC(=O)NC1=O)C2=O)NO (stereo not drawn) [15d, 6-(3-(2-(2,6-Dioxopiperidin-3-yl)-1,3-dioxoisoindolin-4-yl)ureido)-N-hydroxyhexanamide]
IC50 (MM.1S cell line; [7]): > 10 µM | IC50 (HDAC3 [1]): 0.22 ± 0.02 µM | IC50 (HDAC1 [2]): 0.44 ± 0.1 µM | IC50 (HDAC6 [3]): 5.28 ± 1.42 µM

O=C(CCCCCC(=O)Nc1cccc2c1CN(C1CCC(=O)NC1=O)C2=O)NO (stereo not drawn) [9a, N^1-(2-(2,6-Dioxopiperidin-3-yl)-1-oxoisoindolin-4-yl)-N^7-hydroxyheptanediamide]
IC50 (HDAC3 [1]): 2.2 ± 0.29 µM | IC50 (HDAC1 [2]): 2.31 ± 0.46 µM | IC50 (HDAC6 [3]): 1.98 ± 0.69 µM

O=C(CCCCCCNC(=O)Nc1cccc2c1CN(C1CCC(=O)NC1=O)C2=O)NO (stereo not drawn) [15b, 7-(3-(2-(2,6-Dioxopiperidin-3-yl)-1-oxoisoindolin-4-yl)ureido)-N-hydroxyheptanamide]
IC50 (HDAC3 [1]): 0.58 ± 0.04 µM | IC50 (HDAC1 [2]): 0.57 ± 0.04 µM | IC50 (HDAC6 [3]): 1.67 ± 0.41 µM

O=C(CCCCCCCCC(=O)Nc1cccc2c1CN(C1CCC(=O)NC1=O)C2=O)NO (stereo not drawn) [9d, N^1-(2-(2,6-Dioxopiperidin-3-yl)-1-oxoisoindolin-4-yl)-N^10-hydroxydecanediamide]
IC50 (HDAC3 [1]): 0.75 ± 0.06 µM | IC50 (HDAC1 [2]): 0.72 ± 0.18 µM | IC50 (HDAC6 [3]): 2.94 ± 0.62 µM

O=C(CCCCCCC(=O)Nc1cccc2c1CN(C1CCC(=O)NC1=O)C2=O)NO (stereo not drawn) [9b, N^1-(2-(2,6-Dioxopiperidin-3-yl)-1-oxoisoindolin-4-yl)-N^8-hydroxyoctanediamide]
IC50 (MM.1S cell line; [7]): > 10 µM | IC50 (HDAC3 [1]): 0.47 ± 0.01 µM | IC50 (HDAC1 [2]): 0.38 ± 0.14 µM | IC50 (HDAC6 [3]): 1.46 ± 1.02 µM

Nc1ccccc1NC(=O)c1ccc(COc2cccc3c2CN(C2CCC(=O)NC2=O)C3=O)cc1 (stereo not drawn) [21a, N-(2-Aminophenyl)-4-(((2-(2,6-dioxopiperidin-3-yl)-1-oxoisoindolin-4-yl)oxy)methyl)benzamide]
HDAC6 degradation compared with HDAC1 and HDAC3 (immunoblot) (HDAC6 [4]; 0.12 μM): superior HDAC6 degradation efficacies | degradation of HDAC6 (immunoblot) (HDAC6 [4]): dose-dependent manner | IC50 (MM.1S cell line; MM.1S cells, printed beside the HDAC6 immunoblot, read-out: IC50 printed in the picture of Figure 4B): 0.04 µM | IC50 (MM.1S cell line; [7]): 0.043 ± 0.02 µM | anti-proliferative potency relative to SAHA (MM.1S cell line; MM.1S cell line): approximately five times more potent | IC50 (HDAC3 [1]): 0.56 ± 0.02 µM | IC50 (HDAC1 [2]): 1.6 ± 0.54 µM | IC50 (HDAC6 [3]): > 20 µM | increase in tubulin acetylation (tubulin acetylation): not observed

Nc1ccccc1NC(=O)c1ccc(COc2cccc3c2C(=O)N(C2CCC(=O)NC2=O)C3=O)cc1 (stereo not drawn) [21b, N-(2-Aminophenyl)-4-(((2-(2,6-dioxopiperidin-3-yl)-1,3-dioxoisoindolin-4-yl)oxy)methyl)benzamide]
degradation of HDAC6 (immunoblot) (HDAC6 [4]): almost no degradation | IC50 (MM.1S cell line; [7]): 0.541 ± 0.108 µM | IC50 (HDAC3 [1]): 0.28 ± 0.04 µM | IC50 (HDAC1 [2]): 1.2 ± 0.44 µM | IC50 (HDAC6 [3]): > 20 µM | degradation of HDAC1 (immunoblot) (HDAC1 [5]): almost no degradation | degradation of HDAC3 (immunoblot) (HDAC3 [6]): almost no degradation

O=C(CCCCCNC(=O)Nc1cccc2c1CN(C1CCC(=O)NC1=O)C2=O)NO (stereo not drawn) [15a, 6-(3-(2-(2,6-Dioxopiperidin-3-yl)-1-oxoisoindolin-4-yl)ureido)-N-hydroxyhexanamide]
IC50 (MM.1S cell line; [7]): > 10 µM | IC50 (HDAC3 [1]): 0.27 ± 0.04 µM | IC50 (HDAC6 [3]): 5.96 ± 1.43 µM

O=C1CCC(N2C(=O)c3cccc(OCc4ccc(C(=O)NO)cc4)c3C2=O)C(=O)N1 (stereo not drawn) [23b, 4-(((2-(2,6-Dioxopiperidin-3-yl)-1,3-dioxoisoindolin-4-yl)oxy)methyl)-N-hydroxybenzamide]
degradation of HDAC6 (immunoblot) (HDAC6 [4]): almost no degradation | IC50 (MM.1S cell line; [7]): 1.34 ± 0.4 µM | IC50 (HDAC3 [1]): 0.76 ± 0.1 µM | IC50 (HDAC1 [2]): 2.23 ± 0.3 µM | IC50 (HDAC6 [3]): > 20 µM | degradation of HDAC1 (immunoblot) (HDAC1 [5]): almost no degradation | degradation of HDAC3 (immunoblot) (HDAC3 [6]): almost no degradation

O=C1CCC(N2Cc3c(OCc4ccc(C(=O)NO)cc4)cccc3C2=O)C(=O)N1 (stereo not drawn) [23a, 4-(((2-(2,6-Dioxopiperidin-3-yl)-1-oxoisoindolin-4-yl)oxy)methyl)-N-hydroxybenzamide]
IC50 (MM.1S cell line; [7]): > 10 µM | IC50 (HDAC3 [1]): 0.65 ± 0.03 µM | IC50 (HDAC1 [2]): 8.32 ± 2.1 µM | IC50 (HDAC6 [3]): 0.38 ± 0.1 µM

O=C(CCCCCCCCNC(=O)Nc1cccc2c1CN(C1CCC(=O)NC1=O)C2=O)NO (stereo not drawn) [15c, 9-(3-(2-(2,6-Dioxopiperidin-3-yl)-1-oxoisoindolin-4-yl)ureido)-N-hydroxynonanamide]
IC50 (HDAC3 [1]): 0.96 ± 0.13 µM | IC50 (HDAC1 [2]): 0.82 ± 0.06 µM | IC50 (HDAC6 [3]): 3.09 ± 0.54 µM

O=C(CCCCCCCC(=O)Nc1cccc2c1CN(C1CCC(=O)NC1=O)C2=O)NO (stereo not drawn) [9c, N^1-(2-(2,6-Dioxopiperidin-3-yl)-1-oxoisoindolin-4-yl)-N^9-hydroxynonanediamide]
IC50 (HDAC3 [1]): 1.06 ± 0.2 µM | IC50 (HDAC1 [2]): 1.13 ± 0.03 µM | IC50 (HDAC6 [3]): 3.67 ± 1.02 µM

O=C(CCCCCCC(=O)Nc1cccc2c1C(=O)N(C1CCC(=O)NC1=O)C2=O)NO (stereo not drawn) [9e, N^1-(2-(2,6-Dioxopiperidin-3-yl)-1,3-dioxoisoindolin-4-yl)-N^8-hydroxyoctanediamide]
IC50 (MM.1S cell line; [7]): > 10 µM | IC50 (HDAC3 [1]): 0.33 ± 0.01 µM | IC50 (HDAC1 [2]): 2.7 ± 0.36 µM | IC50 (HDAC6 [3]): 0.42 ± 0.18 µM
